Data on eleven compounds can be found in PubChem BioAssay AID1117334 (Cheminformatics & Chemogenomics Research Group (CCRG), …, 2015).

The source made the active and inactive calls. How the calls were made is not given here. Bounds are passed on as bounds.

The experiment relates to Colo320 viability, CellTiter-Glo luminescence. As to the kind of experiment: cytotoxicity toward Colo320 cells – cell-based, CellTiter-Glo luminescence, IC50, dose response (AID 1117334).
In the case of `CCCCCCCCCCCCCC[N+](C)(C)C`, the IC50 is 2.52 µM.
`O=Cc1ccc(O)c(O)c1O`: the IC50 is 9.08 µM (inactive).
The value for `Cn1cnc([N+](=O)[O-])c1Sc1ncnc2nc[nH]c12` was 10.3 µM (inactive).
As for `O=C1[O][Bi][O]c2ccccc21`, the figure is > 20 µM (inactive); as for `CO[C@@]12[C@H](COC(N)=O)C3=C(C(=O)C(C)=C(N)C3=O)N1C[C@@H]1N[C@@H]12`, 12.6 µM (inactive); as for `Cc1ccc([N+](=O)[O-])[c]2c1[O][Hg]2`, 0.935 µM.
As for `OCCN1CCN(CC/C=C2/c3ccccc3Sc3ccc(C(F)(F)F)cc32)CC1`, the figure is 2.31 µM; as for `CC(C)n1c(/C=C/[C@@H](O)C[C@@H](O)CC(=O)O)c(-c2ccc(F)cc2)c2ccccc21`, 13 µM (inactive).
With `O=C(O)C1(C(=O)O)CCC1.[NH2-].[NH2-].[Pt+2]`, the IC50 was > 20 µM (inactive).
As for `CCN(CC)CCCC(C)Nc1c2ccc(Cl)cc2nc2ccc(OC)cc12` (stereo unspecified), the figure is 8.44 µM (inactive); as for `CC(=O)[O][Hg][c]1ccccc1`, 1.3 µM.
